Where a SMILES comes first, the peptide text is derived from it. Bridges are numbered along the chain shown (N, C = ends).
Key:
[1] = Degree of fold by FUV-ECD (CCA+ ensemble deconvolution); type: physicochemical; details: for Degree of the fold by FUV-ECD: T=15 °C, c(protein)=20–30 μM, pH≈7, joint CCA+ deconvolution of 204 T-dependent FUV-ECD spectra; for difference in folded fraction between SS variant and parent: at 4 °C, FUV-ECD ensemble deconvolution
Text: Circular dichroism (CD) spectroscopy is increasingly recognized as very sensitive indicator of protein conformation,58, 59 relying on a plethora of electronic transitions. The FUV‐ECD spectra of Trp‐cage proteins (e.g., Exenatide, E19, E19_SS) are typically the weighted sums of the C‐ (folded and highly helical) and U‐type (unfolded) base curves (Figure 2 A), as assigned and verified by means of NMR spectroscopy.60, 61 As the temperature increases, the shape of the FUV‐ECD spectra changes: those of the parent proteins—E2, E5, E11, and E19—acquire more and more U‐type characteristics, as they unfold gradually. The temperature‐dependent FUV‐ECD spectra for all four SS bond enforced model peptides were recorded between 5 and 85 °C (in steps of 5 °C, resulting in 17 spectra for each protein; Figure S1 in the Supporting Information). Aside from E2_SS, the SS‐bond‐containing mutants have similar FUV‐ECD spectra to that of their parent proteins at low temperatures. On the other hand, because the SS bond makes the 3D folds of SS variants more rigid, they preserve their C‐type characteristics better and delay unfolding, even at higher temperatures. Once the SS bond is reduced (see below for details), the spectral properties of the SH variants revert to those of the parent proteins. Their 3D‐scaffold compactness decreases as the temperature increases; this is less apparent in the case of E2 and E2_2SH because they both already present an ensemble of dynamic backbone structures at 5 °C.
Ensemble deconvolution62, 63 of the 204 (12×17) ECD spectra, f(λ, T), made the quantitative analysis of the relative abundance of secondary structural elements belonging to each peptide in each state possible because the pure ECD curves were successfully assigned.60, 64, 65, 66 The results in Figure 2 B indicate that 1) the SS bond stabilizes the less folded protein scaffolds more effectively, for example, whereas the difference at 4 °C between the E2 and E2_SS folded fraction is 48 %, the same difference between E5 and E5_SS is 14 %; in the case of E11 and E11_SS, it is only 28 %, and for E19 and E19_SS it is 7 % (Figure 2 D). 2) The ratio of the folded, helical components increases upon going from E2 to E5 and E11; however, the compact α‐helical content of E19_SS, E19_2SH, and E19 is lower than those of E11_SS, E11_2SH, and E11 because the unfolded eight‐residue‐long N‐terminal part elevates the overall backbone dynamics, which destabilizes the compact 3D fold. 3) All four reduced proteins (E2_2SH, E5_2SH, E11_2SH, E19_2SH) have a higher helix content (≈7–15 %) than that of the parent proteins over the entire temperature range. 4) The 3D folds stabilized by SS bonds are less sensitive to temperature (Figure 2 C, D).
ECD: FUV‐ECD spectra were recorded on a Jasco J810 spectrophotometer by using a 1.0 mm path length cuvette with protein concentrations of 20–30 μM. Data accumulation was performed over a range of 185–260 nm, with 0.2 nm step resolution at a scan rate of 50 nm min^−1 with a 1 nm bandwidth. The spectral accumulations were resolved between 5 and 85 °C in steps of 5 °C. The temperature was controlled by using a Peltier‐type heating system. Each spectrum baseline was processed by subtracting the solvent spectrum from that of the protein and the raw ellipticity data were converted into mean residue molar ellipticity units, [Θ]MR.

[2] = SS bond reduction by TCEP monitored by 1H NMR; type: physicochemical; details: 1.7 mM protein, twofold excess of TCEP, 15 °C, pH 7; for TCEP: Elapsed time to steady state / TCEP: k1 / TCEP: t1/2 of reduction: 1H NMR; for TCEP: Conversion rate: 1H NMR Trp Hε1 integrals; for TCEP: k1: parameter estimation; for TCEP: t1/2 of reduction: calculated from k1 (Eq. 12)
Text: The SS bond reduction by TCEP is a bimolecular nucleophilic substitution (SN2) reaction.37 Thus, both the concentration of the oxidized form of the protein [_SS] and that of the RA contribute to the rate of the reduction. In an ideal case, we should consider only nucleophilic attack of the RA (k 1), but, as we explained previously, in practice, we also have to take into account back oxidation (k 2), which takes place simultaneously, and, in some cases, depending on the size and shape of the protein, precipitation (k 3; Figure 5). The mechanism of reduction, therefore, can be described by Equations (2), (3), (4):(2) SS+RAred→k12SH+RAox (3) 2SH+O2→k2SS (4) 2SH→k3SSprecipitated
By fitting this model to the concentration–time functions determined by means of NMR spectroscopy, k 1, k 2, and k 3 can be determined, and half‐lives can be calculated. We focused on the determination of the reduction rate constants k 1; therefore, sampling was more frequent in the reduction phase (stage I; Figure 5 B). Based on parameter estimation (see the Experimental Section), k 2 and k 3 are very often either negligibly small, or, due to a lack of sufficient data, cannot be confidently estimated. Obtaining key kinetic parameters allowed us to describe and compare the reduction kinetics of the SS‐containing miniproteins under various experimental conditions. Some protocols reported in the literature apply extreme conditions, such as high temperature (e.g., 50–80 °C), to obtain short reduction times; this is clearly unsuitable for maintaining the integrity of the protein, or >20‐fold molar excess of reagent. By performing the reduction of E19_SS (0.8 mM) under such conditions (60 °C with 18‐fold TCEP excess), the reaction seemed almost instantaneous (t 1/2<5 min), but the sample became opalescent and side reactions (e.g., precipitation) were instantly detected. Similarly to most globular proteins, the conformational ensemble of E19_2SH at 60 °C is distinctly different from that of 15 °C; thus presenting many more unfolded states. The folded fraction of E19_2SH is 64 % at 15 °C, whereas it is 41 % at 60 °C, according to FUV‐ECD analysis. Instead of intramolecular reoxidation, undesirable intermolecular reoxidation might occur between particles. […] In principle, the reduction rate can be enhanced at lower T by increasing the TCEP molar ratio (15–20‐fold molar excess); however, this also triggers obscure unwanted processes (Figure S5). Experiments were repeated at different temperatures (15, 25, and 37 °C) with 0.8 mM protein and 18‐fold excess of TCEP (Table 2 and Figure S6). The Arrhenius equation allows the activation energy (E a) of the redox reaction to be derived, resulting in a value of about 44.3 kJ mol^−1. For comparison, the activation energy of thiol–disulfide exchange between methylthiolate and oxidized DTT was calculated to be 62 kJ mol^−1.76 Both FUV‐ECD and NMR spectroscopy derived structural information support the high conformational similarity between E19_SS and E19_2SH; therefore, E a is likely to be used for the redox reaction, rather than for the conformational switch between the two conformational states (Table 1). […] Additional experiments were performed to investigate the effect of the protein/RA ratio as a practical perspective (Figure S7). The above‐described NMR spectroscopy methodology provides high‐resolution information about the reduction mechanism, relative to that of the more rapid NUV‐ECD approach, and thus, details of the reduction of all four −SS− protein models were obtained through NMR spectroscopy.
Monitoring reduction kinetics: Peptide samples were prepared between 0.8 and 1.8 mM in 50 mM NaH2PO4–Na2HPO4 buffer (600 μL, pH 6.95), with 10 % D2O. A 0.1 M solution of NaOH was used to set the pH to 7. […]

Row | SMILES | Degree of the fold by FUV-ECD [1] [%] | difference in folded fraction between SS variant and parent [1] [%] | TCEP: Elapsed time to steady state [2] | TCEP: Conversion rate [2] [%] | TCEP: k1 [2] [M⁻¹ s⁻¹] | TCEP: t1/2 of reduction [2] [min]
1 | CC[C@H](C)[C@@H]1NC(=O)[C@H](Cc2ccc(O)cc2)NC(=O)[C@H](CC(C)C)NC(=O)[C@H](CCCNC(=N)N)NC(=O)[C@H](C(C)C)NC(=O)[C@@H](N)CSSC[C@@H](C(=O)O)NC(=O)[C@@H]2CCCN2C(=O)[C@@H]2CCCN2C(=O)[C@@H]2CCCN2C(=O)[C@H](CCCNC(=N)N)NC(=O)CNC(=O)[C@H](CO)NC(=O)[C@H](CO)NC(=O)[C@@H]2CCCN2C(=O)CNC(=O)CNC(=O)[C@H](CC(=O)O)NC(=O)[C@H](CCCCN)NC(=O)[C@H](CC(C)C)NC(=O)[C@H](Cc2c[nH]c3ccccc23)NC(=O)[C@H](CCC(N)=O)NC1=O [E2_SS] (H-CVRLYIQWLKDGGPSSGRPPPC-OH; disulfide 1-22) | 51.8 | 48 | <5 min | 100 |  | 
2 | CC[C@H](C)[C@@H]1NC(=O)[C@H](Cc2ccc(O)cc2)NC(=O)[C@H](CC(C)C)NC(=O)[C@H](CCCNC(=N)N)NC(=O)[C@H](C(C)C)NC(=O)[C@@H](NC(=O)[C@H](CCC(=O)O)NC(=O)[C@H](CCC(=O)O)NC(=O)[C@@H](N)CCC(=O)O)CSSC[C@@H](C(=O)O)NC(=O)[C@@H]2CCCN2C(=O)[C@@H]2CCCN2C(=O)[C@@H]2CCCN2C(=O)[C@H](CCCNC(=N)N)NC(=O)CNC(=O)[C@H](CO)NC(=O)[C@H](CO)NC(=O)[C@@H]2CCCN2C(=O)CNC(=O)CNC(=O)[C@H](CC(=O)O)NC(=O)[C@H](CCCCN)NC(=O)[C@H](CC(C)C)NC(=O)[C@H](Cc2c[nH]c3ccccc23)NC(=O)[C@H](CCC(N)=O)NC1=O [E5_SS] (H-EEECVRLYIQWLKDGGPSSGRPPPC-OH; disulfide 4-25) | 63.4 | 14 | ≈1 h | 93 | 0.308 | 14
3 | CC[C@H](C)[C@@H]1NC(=O)[C@H](Cc2ccc(O)cc2)NC(=O)[C@H](CC(C)C)NC(=O)[C@H](CCCNC(=N)N)NC(=O)[C@H](C(C)C)NC(=O)[C@@H](NC(=O)[C@H](CCC(=O)O)NC(=O)[C@H](CCC(=O)O)NC(=O)[C@H](CCC(=O)O)NC(=O)[C@H](CCSC)NC(=O)[C@H](CCC(N)=O)NC(=O)[C@H](CCCCN)NC(=O)[C@H](CO)NC(=O)[C@H](CC(C)C)NC(=O)[C@@H](N)CC(=O)O)CSSC[C@@H](C(=O)O)NC(=O)[C@@H]2CCCN2C(=O)[C@@H]2CCCN2C(=O)[C@@H]2CCCN2C(=O)[C@H](CCCNC(=N)N)NC(=O)CNC(=O)[C@H](CO)NC(=O)[C@H](CO)NC(=O)[C@@H]2CCCN2C(=O)CNC(=O)CNC(=O)[C@H](CC(=O)O)NC(=O)[C@H](CCCCN)NC(=O)[C@H](CC(C)C)NC(=O)[C@H](Cc2c[nH]c3ccccc23)NC(=O)[C@H](CCC(N)=O)NC1=O [E11_SS] (H-DLSKQMEEECVRLYIQWLKDGGPSSGRPPPC-OH; disulfide 10-31) | 96.0 | 28 | ≈5–6 h | 94 | 0.0613 | 67

From PMC7079008, “Compactness of Protein Folds Alters Disulfide‐Bond Reducibility by Three Orders of Magnitude: A Comprehensive Kinetic Case Study on the Reduction of Differently Sized Tryptophan Cage Model Proteins” (Chembiochem, 2019)
